In US20020183384A1, “Methods of treating nuclear factor-kappa B mediated diseases and disorders” (priority 2001, published 2002):
Where two headings read alike, the source gives them in different places.

Test system: NF-κB mediated transcription
Experiment: NF-κB driven β-lactamase reporter assay in ECV-304 NF-κB.βlaZ cells (AURORA CCF2 fluorescence)
Type: cell-based, human
Settings: 10 μM compound, ECV-304 NF-κB.βlaZ cells stimulated with 10 ng/mL TNF-α or 100 pg/mL IL-1β, 6 hours at 37° C., inhibition of maximum blue/green ratio; for inhibition at 10 µM: Homo sapiens, read-out: Percent Inhibition at 10 μM
How it was run: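 ECV-304 cells (clone 1E8) stably carrying a β-lactamase reporter driven by 5 HIV-1 NF-κB sites, plated in M-199 with 2% FBS, compound at 10 μM final. CCF2 read at 395 nm excitation, blue 460 nm/green 530 nm emission ratio; IC50 from dose-response curve.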

Compound | inhibition at 10 µM [%] | further results
CC[C@H](CC[C@@H](C)[C@H]1CC[C@H]2[C@@H]3CCC4C[C@H](OC(=O)NS(=O)(=O)Oc5c(C(C)C)cccc5C(C)C)CC[C@]4(C)[C@H]3CC[C@]12C)C(C)C (stereo partly drawn) [Example 121, Stigmastan-3-ol, [[2,6-bis(1-methylethyl)phenoxy]sulfonyl]-carbamate, (3α)-] |  | inhibition at 10 µM (ECV-304, 6 h): < 10%
CC(C)c1cccc(C(C)C)c1CC(=O)NS(=O)(=O)Oc1c(C(C)C)cccc1C(C)C [Example 122, Sulfamic acid, [[2,6-bis(1-methylethyl)phenyl]acetyl]-, 2,6-bis(1-methylethyl)-phenyl ester] |  | inhibition at 10 µM (ECV-304, 6 h): 65.3%
COc1cc(C(C)C)c(OC(=O)NS(=O)(=O)Oc2c(C(C)C)cccc2C(C)C)c(C(C)C)c1 [Example 123, Carbamic acid, [[2,6-bis(1-methylethyl)phenoxy]sulfonyl]-, 4-methoxy-2,6-bis(1-methylethyl)phenyl ester] | < 10 | 
CC(C)c1cc(C(C)C)c(OC(=O)NS(=O)(=O)Oc2c(C(C)C)cccc2C(C)C)c(C(C)C)c1 [Example 124, Carbamic acid, [[2,6-bis(1-methylethyl)phenoxy]sulfonyl]-, 2,4,6-tris(1-methylethyl)phenyl ester] | 11.3 | 
CC(C)c1cc(C(C)C)c(OS(=O)(=O)NC(=O)Oc2c(C(C)C)cccc2C(C)C)c(C(C)C)c1 [Example 125, Carbamic acid, [[2,4,6-tris(1-methylethyl)phenoxy]sulfonyl]-, 2,6-bis(1-methylethyl)phenyl ester] | 11 | 
CC(C)c1cc(C(C)C)c(OC(=O)NS(=O)(=O)Oc2c(C(C)C)cc(C(C)C)cc2C(C)C)c(C(C)C)c1 [Example 126, Carbamic acid, [[2,4,6-tris(1-methylethyl)phenoxy]sulfonyl]-,2,4,6-tris(1-methylethyl)phenyl ester] |  | Percent Inhibition at 10 μM: 10.02%
CC(C)c1cc(C(C)C)c(OS(=O)(=O)NC(=O)Oc2c(C(C)(C)C)cc(C(C)(C)C)cc2C(C)(C)C)c(C(C)C)c1 [Example 127, Carbamic acid, [[2,4,6-bis(1-methylethyl)phenoxy]sulfonyl]-, 2,4,6-tris(1,1-dimethylethyl)phenyl ester] |  | Percent Inhibition at 10 μM: 74.01%
CC(C)c1cccc(C(C)C)c1OS(=O)(=O)NC(=O)Oc1c(C(C)(C)C)cc(SSc2cc(C(C)(C)C)c(O)c(C(C)(C)C)c2)cc1C(C)(C)C [Example 128, Carbamic acid, [[2,6-bis(1-methylethyl)phenoxy]sulfonyl]-, 4-[[3,5-bis(1,1-dimethylethyl)-4-hydroxyphenyl]dithio]-2,6-bis(1,1-dimethylethyl)phenyl ester] | < 10 | 
CC(C)c1ccc(OC(=O)NS(=O)(=O)Oc2c(C(C)C)cccc2C(C)C)c(C(C)C)c1 [Example 129, Carbamic acid, [[2,6-bis(1-methylethyl)phenoxy]sulfonyl]-, 2,4-bis(1-methylethyl)phenyl ester] | < 10 | 
CC(C)c1cc(CN(C)C)cc(C(C)C)c1OC(=O)NS(=O)(=O)Oc1c(C(C)C)cccc1C(C)C [Example 130, Carbamic acid, [[2,6-bis(1-methylethyl)phenoxy]sulfonyl]-, 4-[(dimethylamino)-methyl]-2,6-bis(1-methylethyl)phenyl ester] | < 10 | 
CC(C)c1cccc(C(C)C)c1OS(=O)(=O)NC(=O)OC1C2CC3CC(C2)CC1C3 (stereo not shown) [Example 131, Carbamic acid, [[2,6-bis(1-methylethyl)phenoxy]sulfonyl]-, tricyclo[3.1.1.1^3,7]-dec-2-yl ester] |  | Percent Inhibition at 10 μM: 33.39%
CC(C)c1cc(O)cc(C(C)C)c1OC(=O)NS(=O)(=O)Oc1c(C(C)C)cccc1C(C)C [Example 132, Carbamic acid, [[2,6-bis(1-methylethyl)phenoxy]sulfonyl]-, 4-hydroxy-2,6-bis(1-methylethyl)phenyl ester] | < 10 | 
CC(C)c1cccc(C(C)C)c1OS(=O)(=O)NC(=O)OC1CCCCC1 [Example 133, Carbamic acid, [[2,6-bis(1-methylethyl)phenoxy]sulfonyl]-, cyclohexyl ester] |  | inhibition at 10 µM (ECV-304, 6 h): < 10%
